The IC50 is the midpoint of a concentration-inhibition curve.

Entries after “also recorded” stand apart in the source; their conditions may differ. Read-outs that look alike come from different tables or passages of the source.

For test [1], the system named is wild-type HIV-1 (HIV-1LAI) in H9 cells (non-permissive). Description: microbe, parasite or virus in culture. The test is classed as cell-based.
Test [2] concerns wild-type HIV-1 (HIV-1LAI) in MT-4 cells (permissive). The experiment in a line: Antiviral activity assay: wild-type HIV-1 in permissive MT4 cells, reverse transcriptase activity in culture supernatants. The test is classed as cell-based.
For test [3], the system named is HA-tagged A3G and GFP-tagged Vif or ΔVif in 293FT cells. The experiment in a line: Immunoblot of A3G and Vif levels in transfected 293FT cells. The settings on record: 293FT cells, 50 μM, 16 h. (In western blotting, separated proteins are transferred to a membrane and probed.)
[4] abbreviates: Human immunodeficiency virus 1, H9, read-out: Antiviral activity (IC50 μM) H9, Table 2, wild-type HIV-1, non-permissive H9 cells.
Setting [5] is: Human immunodeficiency virus 1, H9, read-out: Antiviral activity (IC50 μM) H9 Cells, Table 4, wild-type HIV-1, non-permissive H9 cells.
The mark [6] stands for this setting: Human immunodeficiency virus 1, H9, read-out: Antiviral activity (IC50 μM) H9 Cells, Table 7, wild-type HIV-1, non-permissive H9 cells.
The mark [7] stands for this setting: Human immunodeficiency virus 1, H9, read-out: Antiviral activity (IC50 μM) H9 cells, Table 5, wild-type HIV-1, non-permissive H9 cells.
Where [8] appears, read: Human immunodeficiency virus 1, H9, read-out: Antiviral activity (IC50 μM) H9 cells, Table 8, wild-type HIV-1, non-permissive H9 cells.
The mark [9] stands for this setting: Human immunodeficiency virus 1, H9, read-out: Antiviral activity (IC50 μM) H9 cells, wild-type HIV-1 (HIV-1LAI), H9 cells (non-permissive), RT activity in culture supernatants, compounds 1 to 50 μM.
Where [10] appears, read: Human immunodeficiency virus 1, H9, read-out: IC50, anti-HIV-1 activity, non-permissive H9 cells.
[11] abbreviates: Human immunodeficiency virus 1, MT4, Table 2, wild-type HIV-1, permissive MT4 cells, read-out: Antiviral activity (IC50 μM) MT4.
The mark [12] stands for this setting: Human immunodeficiency virus 1, MT4, wild-type HIV-1 (HIV-1LAI), MT4 cells (permissive), RT activity in culture supernatants, compounds 1 to 50 μM, read-out: Antiviral activity (IC50 μM) MT4 cells.

Take `COc1ccccc1-n1cc(-c2ccccc2Sc2ccc(C(F)(F)F)cc2)nn1` [Compound 2dx, 1-(2-Methoxyphenyl)-4-(2-((4-(trifluoromethyl)phenyl)thio)phenyl)-1H-1,2,3-triazole]: the IC50 in test [1] (setting [4]), in test [1] (setting [5]), in test [1] (setting [6]), in test [1] (setting [7]), in test [1] (setting [8]) and in test [1] (setting [9]) was 2.6 µM throughout. Besides, the IC50 in test [1] (setting [10]) is 1 to 3 µM; in test [2] (setting [11]), > 50 µM; in test [2] (setting [12]), > 50 µM. Moreover, the “upregulation of A3G and downregulation of Vif (immunoblots, FIG. 16)” value (“upregulation” for short) in test [3] is “same mechanism as of RN-18; also recorded: same mechanism as observed for RN-18 and 1d”.
As to `COc1ccccc1-n1cc(-c2ccccc2S(=O)(=O)c2ccc(N)cc2)nn1` [Compound 2ey, 4-((2-(1-(2-Methoxyphenyl)-1H-1,2,3-triazol-4-yl)phenyl)sulfonyl)aniline], the IC50 in test [1] (setting [4]), in test [1] (setting [5]), in test [1] (setting [6]), in test [1] (setting [7]), in test [1] (setting [8]) and in test [1] (setting [9]) was 0.4 µM each time. For the same compound, the values for the IC50 in test [1] (setting [10]), in test [2] (setting [11]) and in test [2] (setting [12]) were 0.4 µM, > 50 µM and > 50 µM, respectively. In addition, in test [3], the “upregulation” value is “same mechanism as of RN-18; also recorded: same mechanism as observed for RN-18 and 1d”.
As to `COc1ccc(OC)c(-n2cc(-c3ccccc3Sc3ccc([N+](=O)[O-])cc3)nn2)c1` [Compound 5ax, 1-(2,5-Dimethoxyphenyl)-4-(2-((4-nitrophenyl)thio)phenyl)-1H-1,2,3-triazole], in test [1] (H9 cells, IC50 compared with RN-18), the “fold more potent than the original lead molecule RN-18” value is “about 1000 fold”. Moreover, the IC50 in test [1] (setting [4]), in test [1] (setting [5]), in test [1] (setting [6]), in test [1] (setting [7]), in test [1] (setting [8]) and in test [1] (setting [9]) was 0.01 µM throughout. The values for the IC50 in test [1] (setting [10]), in test [2] (setting [11]) and in test [2] (setting [12]) were 0.01 µM, > 50 µM and > 50 µM, respectively. The “upregulation” value in test [3] was “same mechanism as of RN-18; also recorded: same mechanism as observed for RN-18 and 1d”.
Regarding `COc1ccc(OC)c(-n2cc(-c3ccccc3S(=O)(=O)c3ccc(N)cc3)nn2)c1` [Compound 5ey, 4-((2-(1-(2,5-Dimethoxyphenyl)-1H-1,2,3-triazol-4-yl)phenyl)sulfonyl)aniline], the IC50 in test [1] (setting [4]), in test [1] (setting [5]), in test [1] (setting [6]), in test [1] (setting [7]), in test [1] (setting [8]) and in test [1] (setting [9]) was 0.6 µM each time. In addition, the IC50 in test [2] (setting [11]) and in test [2] (setting [12]) was > 50 µM in each case. For the same compound, the “upregulation” value in test [3] is “same mechanism as of RN-18; also recorded: same mechanism as observed for RN-18 and 1d”.
As for `COc1cccc(OC)c1-n1cc(-c2ccccc2Sc2ccc(C(=O)O)cc2)nn1` [Compound 6fx, 4-((2-(1-(2,6-Dimethoxyphenyl)-1H-1,2,3-triazol-4-yl)phenyl)thio)benzoic Acid], the IC50 in test [1] (setting [4]), in test [1] (setting [5]), in test [1] (setting [6]), in test [1] (setting [7]), in test [1] (setting [8]) and in test [1] (setting [9]) was 1.9 µM in each case. The figures for the IC50 in test [1] (setting [10]), in test [2] (setting [11]) and in test [2] (setting [12]) were 1 to 3 µM, > 50 µM and > 50 µM, respectively.
In the case of `COc1cccc(OC)c1-n1cc(-c2ccccc2S(=O)(=O)c2ccc(C(=O)O)cc2)nn1` [Compound 6fy, 4-((2-(1-(2,6-Dimethoxyphenyl)-1H-1,2,3-triazol-4-yl)phenyl)sulfonyl)benzoic Acid], the IC50 in test [1] (setting [4]), in test [1] (setting [5]), in test [1] (setting [6]), in test [1] (setting [7]), in test [1] (setting [8]) and in test [1] (setting [9]) was 1.2 µM each time. Moreover, the IC50 in test [1] (setting [10]) is 1 to 3 µM; in test [2] (setting [11]) it was > 50 µM; in test [2] (setting [12]), > 50 µM.
With `COc1cccc(F)c1-n1cc(-c2ccccc2Sc2ccc([N+](=O)[O-])cc2)nn1` [Compound 7ax, 1-(2-Fluoro-6-methoxyphenyl)-4-(2-((4-nitrophenyl)thio)phenyl)-1H-1,2,3-triazole], the IC50 in test [1] (setting [4]), in test [1] (setting [5]), in test [1] (setting [6]), in test [1] (setting [7]), in test [1] (setting [8]) and in test [1] (setting [9]) was 3.9 µM each time. The IC50 in test [2] (setting [11]) and in test [2] (setting [12]) was > 50 µM throughout.
Turning to `COc1cccc(F)c1-n1cc(-c2ccccc2S(=O)(=O)c2ccc([N+](=O)[O-])cc2)nn1` [Compound 7ay, 1-(2-Fluoro-6-methoxyphenyl)-4-(2-((4-nitrophenyl)sulfonyl)phenyl)-1H-1,2,3-triazole], the IC50 in test [1] (setting [4]), in test [1] (setting [7]), in test [1] (setting [8]), in test [1] (setting [9]), in test [2] (setting [11]) and in test [2] (setting [12]) was > 50 µM in each case.
As to `COC(=O)c1ccc(Sc2ccccc2-c2cn(-c3c(F)cccc3OC)nn2)cc1` [Compound 7bx, Methyl 4-((2-(1-(2-fluoro-6-methoxyphenyl)-1H-1,2,3-triazol-4-yl)phenyl)thio)benzoate], the IC50 in test [1] (setting [4]), in test [1] (setting [5]), in test [1] (setting [6]), in test [1] (setting [7]), in test [1] (setting [8]) and in test [1] (setting [9]) was 7.8 µM throughout. For the same compound, the IC50 in test [2] (setting [11]) and in test [2] (setting [12]) was > 50 µM throughout.
Consider `COc1ccc(S(=O)(=O)c2ccccc2-c2cn(-c3c(F)cccc3OC)nn2)cc1` [Compound 7cy, 1-(2-Fluoro-6-methoxyphenyl)-4-(2-((4-methoxyphenyl)sulfonyl)phenyl)-1H-1,2,3-triazole], for which the IC50 in test [1] (setting [4]), in test [1] (setting [7]), in test [1] (setting [8]), in test [1] (setting [9]), in test [2] (setting [11]) and in test [2] (setting [12]) was > 50 µM each time.
Consider `COc1cccc(F)c1-n1cc(-c2ccccc2S(=O)(=O)c2ccc(C(F)(F)F)cc2)nn1` [Compound 7dy, 1-(2-Fluoro-6-methoxyphenyl)-4-(2-((4-(trifluoromethyl)phenyl)sulfonyl)phenyl)-1H-1,2,3-triazole], for which the IC50 in test [1] (setting [4]), in test [1] (setting [7]), in test [1] (setting [8]), in test [1] (setting [9]), in test [2] (setting [11]) and in test [2] (setting [12]) was > 50 µM throughout.
Regarding `COc1cccc(F)c1-n1cc(-c2ccccc2Sc2ccc(N)cc2)nn1` [Compound 7ex, 4-((2-(1-(2-Fluoro-6-methoxyphenyl)-1H-1,2,3-triazol-4-yl)phenyl)thio)aniline], the IC50 in test [1] (setting [4]), in test [1] (setting [7]), in test [1] (setting [8]), in test [1] (setting [9]), in test [2] (setting [11]) and in test [2] (setting [12]) was > 50 µM throughout.
For the compound `COc1cccc(F)c1-n1cc(-c2ccccc2S(=O)(=O)c2ccc(N)cc2)nn1` [Compound 7ey, 4-((2-(1-(2-Fluoro-6-methoxyphenyl)-1H-1,2,3-triazol-4-yl)phenyl)sulfonyl)aniline], the IC50 in test [1] (setting [4]), in test [1] (setting [5]), in test [1] (setting [6]), in test [1] (setting [7]), in test [1] (setting [8]) and in test [1] (setting [9]) was 15 µM each time. Also, the IC50 in test [2] (setting [11]) and in test [2] (setting [12]) was > 50 µM each time.
For `COc1cccc(F)c1-n1cc(-c2ccccc2Sc2ccc(C(=O)O)cc2)nn1` [Compound 7fx, 4-((2-(1-(2-Fluoro-6-methoxyphenyl)-1H-1,2,3-triazol-4-yl)phenyl)thio)benzoic Acid], the IC50 in test [1] (setting [4]), in test [1] (setting [5]), in test [1] (setting [6]), in test [1] (setting [7]), in test [1] (setting [8]) and in test [1] (setting [9]) was 4.9 µM each time. Also, the IC50 in test [2] (setting [11]) and in test [2] (setting [12]) was > 50 µM throughout.
Take `COc1cccc(F)c1-n1cc(-c2ccccc2S(=O)(=O)c2ccc(C(=O)O)cc2)nn1` [Compound 7fy, 4-((2-(1-(2-Fluoro-6-methoxyphenyl)-1H-1,2,3-triazol-4-yl)phenyl)sulfonyl)benzoic Acid]: the IC50 in test [1] (setting [4]), in test [1] (setting [7]), in test [1] (setting [8]), in test [1] (setting [9]), in test [2] (setting [11]) and in test [2] (setting [12]) was > 50 µM throughout.
